Experimental data reported in patent US20170071922A1, “ARTIFICIAL SKIN” (Shiseido Company, Ltd., priority 2010, published 2017).

Tested on: skin model (EFT-400, MatTeK)
Test: Electron microscope observation of skin model cultured with MMP inhibitor and/or heparanase inhibitor
Assay type: cell-based, human
Conditions: electron micrographs; result in words
Protocol: A skin model (EFT-400, MatTeK) was cultured in a specialized medium (EFT-400-ASY, MatTeK). Dimethylsulfoxide (DMSO) and ethanol were added to the specialized medium to a final concentration of 0.1% to serve as a control group, 50 mM 1-[4-(1H-benzoimidazol-2-yl)-phenyl]-3-[4-(1H-benzoimidazol-2-yl)-phenyl]-urea (DMSO solvent) was added to the specialized medium to a final concentration of 50 μM to serve as a heparanase inhibitor group, 10 mM N-hydroxy-2-[[(4-methoxyphenyl)sulfonyl] (3-picolyl)amino]-3-methylbutanamide hydrochloride (CGS27023A, ethanol solvent) was added to the specialized medium to a final concentration of 10 μM to serve as an MMP inhibitor group, and 50 mM 1-[4-(1H-benzoimidazol-2-yl)-phenyl]-3-[4-(1H-benzoimidazol-2-yl)-phenyl]-urea (DMSO solvent) and 10 mM CGS27023A (ethanol solvent) were added to the specialized medium to a final concentration of 50 μM and 10 μM, respectively, to serve as a heparanase inhibitor+MMP inhibitor group, followed by culturing.
The aforementioned skin model was cut in half after culturing, fixed with Zamboni's fixative and post-fixed with osmic acid, followed by embedding in resin in accordance with established methods. Tissues were observed by preparing ultra-thin sections and staining with uranyl acetate followed by observing with an electron microscope (JEM-1230, JEOL). […]

SMILES	fibroblasts present in dermis directly beneath basement membrane (FIG. 2)
COc1ccc(S(=O)(=O)N(Cc2cccnc2)C(C(=O)NO)C(C)C)cc1.Cl (centres unmarked) [Group A, N-hydroxy-2-[[(4-methoxyphenyl)sulfonyl](3-picolyl)amino]-3-methylbutanamide hydrochloride]	normal fibroblasts
O=C(Nc1ccc(-c2nc3ccccc3[nH]2)cc1)Nc1ccc(-c2nc3ccccc3[nH]2)cc1 [Group B, 1-[4-(1H-benzoimidazol-2-yl)-phenyl]-3-[4-(1H-benzoimidazol-2-yl)-phenyl]-urea]	normal fibroblasts
